Data as given in patent publication US5026836A, “6-sulfenamide, 6-sulfinamide and 6-sulfonamide purines, purine nucleosides, purine nucleotides, pharmaceutical compositions, and processes of making” (priority 1988, dated 1991).
Entries after “also recorded” stand apart in the source; their conditions may differ. Like-named read-outs stand apart in the source and are kept apart here.

What was measured:
[1] = Solubility (maximum solubility); format: physicochemical
[2] = Toxicity / maximum tolerated dosage in mice; format: in vivo; settings: mouse, in vivo, single QD day 1 ip, read-out: Max. tolerated dosage
Protocol: In Example N other compounds of the invention were tested against L1210 cells. […] Activity in Table 14-a is tabulated as both increases in life span and as cells surviving treatment and that in table 14-b as T/C.

L1210 cells [3] = assay: L1210 cells surviving treatment (% of original inoculum); format: in vivo, mouse; settings: single QD day 1 ip
From the text: (§1) Values below 25% are considered capable of producing effective therapy, those below 10% are considered good and those below 5% are considered very good. This expresses the percent of the cells which survived treatment based upon the original cells in the inoculum. Those tests expressed as increases in life span (% ILS) indicate the increased life span of the drug treated group compared to a control group.
As an indicator of reproducible activity, compounds of the invention and other known cancer chemotherapeutic agents were screened against L1210 lymphoid leukemia in vivo utilizing the mouse as a test species. Normal NCI protocols for this test require 10^5 seed cells of the L1210 cell line. However for the purposes of tests with the L1210 cell line in testing the compounds of the invention for antitumor activity, a log greater, i.e. 10^6 cells were utilized.
Tables 2-a and 2-b illustrate a dose response for Compound 19 against L1210 inoculated mice expressed as both increased life span compared to control and as the number of cells of the original inoculum surviving drug treatment. As is evident from the various regimens of drug treatment shown in Tables 2-a and 2-b, effective therapeutic effects are noted and a dose response to Compound 19 is evident. […] Cytosine Arabinoside must be given every three hours. Test results are given utilizing standard protocols based on mean survival time and are expressed as T/C percentages (treated animals/control animals).

L1210 cells [4] = assay: Life span of BDF1 mice inoculated ip with 10^6 L1210 leukemia cells; format: in vivo, mouse
Protocol: As illustrative examples of use of the compounds of the invention the following examples are given. […] These standard tests utilize protocols developed under the auspices of the Developmental Therapeutics Program, Division of Cancer Treatment, National Cancer Institute, Bethesda, Md., U.S.A. Except as otherwise indicated the tests conform to these protocols and are evaluated utilizing criteria defined by the protocols.
as §1
As an indicator of reproducible activity, compounds of the invention and other known cancer chemotherapeutic agents were screened against L1210 lymphoid leukemia in vivo utilizing the mouse as a test species. Normal NCI protocols for this test require 10^5 seed cells of the L1210 cell line.
Cytosine Arabinoside must be given every three hours.
Mice were inoculated intraperitoneally on day 0 with a million cells of murine leukemia L1210. Drug was given qd days 1, 4 and 7. Increased life span is the mean increase in the treated group presented as a percentage of the mean life span of control mice.
Mice were inoculated intraperitoneally on day 0 with a million cells of murine leukemia L1210. Drugs were given qd days 1, 3, 5 and 7. Increased life span is presented as a percentage of the mean life span of control mice.

L1210 cells [5] = assay: Bioassay of viable L1210 cells in brain after intracranial inoculation and ip drug; format: in vivo, mouse; settings: for intracranial activity: intracranial L1210; for Activity against I.C. L1210 cells, Cell Kill: ip dosage: Compound 18 22 mg/kg, Compound 19 173 mg/kg, Compound 20 62 mg/kg; for crossing of blood brain barrier / CNS penetration (words): mouse, in vivo; for Residual cells (% of control brain): 24 hr after single ip dose (mg/kg): Methotrexate 12, Adriamycin 3, 6-Mercaptopurine 160, Cytosine Arabinoside 1200, Cyclophosphamide 140, Compound 19 173, Tiazofurin 1200, BCNU 20
From the text: BDF1 mice were inoculated intracranially on day 0 with 1×10^5 L1210 cells. […] 24 hr after drug delivery the brains were collected, homogenized, and injected ip into untreated mice. Each mouse received the equivalent of half a brain. Thereafter, life span was monitored and, using inoculum-response data as a base of comparison, estimates were made of the numbers of viable cells in treated and control brains.

[6] = test system: L1210/6MP, 6TG, 6TGR cells; assay: Life span of mice inoculated with L1210 resistant to 6MP, 6TG, 6TGR; format: in vivo, mouse; settings: for activity against drug resistant cells (words): mouse, in vivo
[7] = test system: drug resistant cell lines; settings: background knowledge; cited from earlier work
[8] = test system: Human Colon Adenocarcinoma CX-1; settings: data from Goldin et al 1981; activity indicated at ≤20; cited from earlier work
[9] = test system: drug resistant cell lines; assay: Generation of drug resistant cell lines
adenocarcinoma = settings: background; cited from earlier work

## Nc1nc(S(N)(=O)=O)c2ncn([C@H]3C[C@H](O)[C@@H](CO)O3)c2n1 [Compound 24, 2-Amino-9-(2-deoxy-β-D-erythro-pentofuranosyl)-9H-purine-6-sulfonamide]
[1]
  Max. sol. dosage: 480 mg/kg
[2]; ip, L1210-inoculated BDF1 mice
  MTD: 288 mg/kg

## NSc1nc(N)nc2c1ncn2[C@@H]1O[C@@H]2COP(=O)(O)O[C@H]2[C@H]1O [Compound 29, 2-Amino-9-β-D-ribofuranosylpurine-6-sulfenamide 3',5'-cyclic phosphate]
[1]; in water
  Max. sol. dosage: 480 mg/kg
L1210 cells [3]
  Cells surviving treatment (% of day 0 innoc.): 1.7%
L1210 cells [4]; single QD day 1 ip
  % ILS: 59%
[2]; L1210-inoculated BDF1 mice
  MTD: 480 mg/kg

## NSc1nc(N)nc2nc[nH]c12 [Compound 2, 2-Aminopurine-6-sulfenamide]
[2]; ip, DMSO vehicle, BDF1 mice
  MTD: 37 mg/kg
[2]; ip, NaOH vehicle, BDF1 mice
  MTD: 104 mg/kg

## NSc1nc(N)nc2c1ncn2[C@H]1C[C@H](O)[C@@H](CO)O1 [Compound 22, 2-Amino-9-(2-deoxy-β-D-erythro-pentofuranosyl)-9H-purine-6-sulfenamide]
[1]
  Max. sol. dosage: 173 mg/kg
[2]; ip, L1210-inoculated BDF1 mice
  MTD: 173 mg/kg

## NS(=O)(=O)c1ncnc2c1ncn2[C@@H]1O[C@H](CO)[C@@H](O)[C@H]1O [Compound 8, 9-β-D-Ribofuranosyl-9H-purine-6-sulfonamide]
[1]
  Max. sol. dosage: 480 mg/kg
[2]; ip, L1210-inoculated BDF1 mice
  MTD: 173 mg/kg

## NSc1ncnc2c1ncn2[C@@H]1O[C@H](CO)[C@@H](O)[C@H]1O [Compound 6, 9-β-D-Ribofuranosyl-9H-purine-6-sulfenamide]
[1]
  Max. sol. dosage: 480 mg/kg
[2]; ip, L1210-inoculated BDF1 mice
  MTD: 480 mg/kg

## Nc1nc(S(N)(=O)=O)c2ncn([C@@H]3O[C@H](CO)[C@@H](O)[C@H]3O)c2n1 [Compound 20, 2-amino-9-β-D-ribofuranosyl-9H-purine-6-sulfonamide]
[1]
  Max. sol. dosage: 62 mg/kg
L1210 cells [4]
  oral activity (words): not present
L1210 cells [4]; oral 22 mg/kg, bid days 1,4,7
  Activity against I.P. L1210 cells, T/C: 103.3%
L1210 cells [4]; oral 37 mg/kg, bid days 1,4,7
  Activity against I.P. L1210 cells, T/C: 103.3%
L1210 cells [4]; oral 62 mg/kg, bid days 1,4,7
  Activity against I.P. L1210 cells, T/C: 103.3%
L1210 cells [4]; listed as 6-sulfonamide analog
  oral activity (words): lack of oral activity
[2]; ip, L1210-inoculated BDF1 mice
  MTD: 62 mg/kg
L1210 cells [5]
  intracranial activity: no intracranial activity is seen
  Activity against I.C. L1210 cells, Cell Kill: 0.0 x
  crossing of blood brain barrier / CNS penetration (words): lack of oral activity and CNS penetration
[6]; 22 mg/kg, bid days 1,4,7
  Activity against I.P. L1210 cells resistant to 6MP, 6TG, 6TGR, T/C: 106.7%
[6]; 37 mg/kg, bid days 1,4,7
  Activity against I.P. L1210 cells resistant to 6MP, 6TG, 6TGR, T/C: 130.0%
[6]; 62 mg/kg, bid days 1,4,7
  Activity against I.P. L1210 cells resistant to 6MP, 6TG, 6TGR, T/C: 163.3%
[6]
  activity against drug resistant cells (words): active

## NSc1nc(N)nc2c1ccn2[C@H]1C[C@H](O)[C@@H](CO)O1 [Compound 38, 2-Amino-7-(2-deoxy-β-D-erythro-pentofuranosyl)pyrrolo[2,3-d]pyrimidine-4-sulfenamide]
[1]
  Max. sol. dosage: 173 mg/kg
[2]; ip, L1210-inoculated BDF1 mice
  MTD: 173 mg/kg

## N[S+]([O-])c1ncnc2c1ncn2[C@H]1C[C@H](O)[C@@H](CO)O1 (stereo partly drawn) [Compound 15, 9-(2-Deoxy-β-D-erythro-pentofuranosyl)-9H-ourine-6-sulfinamide]
[1]
  Max. sol. dosage: 800 mg/kg
L1210 cells [3]
  Cells surviving treatment (% of day 0 innoc.): 16%
L1210 cells [4]; single QD day 1 ip
  % ILS: 33%
[2]; ip, L1210-inoculated BDF1 mice
  MTD: 104 mg/kg

## Nc1ccn([C@@H]2O[C@H](CO)[C@@H](O)[C@@H]2O)c(=O)n1 [Cytosine Arabinoside]
[7]
  inducement of drug resistant cell lines: inducement of drug resistant cell line occurs
[8]
  Activity rating δT/δC: 73
L1210 cells [5]
  Residual cells (% of control brain): 15%

## Nc1nc([S+](N)[O-])c2ncn([C@H]3C[C@H](O)[C@@H](CO)O3)c2n1 (stereo partly drawn) [Compound 23, 2-amino-9-(2-deoxy-β-D-erythro-pentofuranosyl)-9H-purine-6-sulfinamide]
[1]
  Max. sol. dosage: 480 mg/kg
  water solubility: increased water solubility
L1210 cells [4]; mouse, in vivo
  in vivo antitumor activity: good activity
[2]; ip, L1210-inoculated BDF1 mice
  MTD: 173 mg/kg

## NS(=O)(=O)c1ncnc2c1ncn2[C@@H]1O[C@H](CO)[C@@H](O)[C@@H]1O [Compound 12, 9-β-D-Arabinofuranosyl-9H-purine-6-sulfonamide]
[1]
  Max. sol. dosage: 173 mg/kg
[2]; ip, L1210-inoculated BDF1 mice
  MTD: 173 mg/kg

## Nc1nc([S+](N)[O-])c2ncn([C@@H]3O[C@@H]4COP(=O)(O)O[C@H]4[C@H]3O)c2n1 (stereo partly drawn) [Compound 30, 2-Amino-9-β-D-ribofuranosylpurine-6-sulfinamide 3',5'-cyclic phosphate]
[1]; in water
  Max. sol. dosage: 288 mg/kg
L1210 cells [3]
  Cells surviving treatment (% of day 0 innoc.): 1.7%
L1210 cells [4]; single QD day 1 ip
  % ILS: 59%
[2]; L1210-inoculated BDF1 mice
  MTD: 288 mg/kg

## NSc1nc(N)nc2c1ncn2[C@@H]1O[C@H](CO)[C@@H](O)[C@H]1O [Compound 18, 2-amino-9-β-D-ribofuranosyl-9H-purine-6-sulfenamide]
[1]
  Max. sol. dosage: 22 mg/kg
[9]
  generation of drug resistant cell lines (words): does generate drug resistant cell lines; also recorded: generates drug resistant cells
L1210 cells [4]
  oral activity (words): Oral activity is seen
L1210 cells [4]; oral 8 mg/kg, qd day 1
  Activity against I.P. L1210 cells, T/C: 147.0%
L1210 cells [4]; oral 13 mg/kg, qd day 1
  Activity against I.P. L1210 cells, T/C: 147.0%
L1210 cells [4]; oral 22 mg/kg, qd day 1
  Activity against I.P. L1210 cells, T/C: 153.0%
L1210 cells [4]; single agent day 1, Compound 19 173 mg/kg, Compound 18 22 mg/kg (Table 12)
  % ILS: 51%
[2]; ip, L1210-inoculated BDF1 mice
  MTD: 22 mg/kg
L1210 cells [5]
  intracranial activity: active intracranially
  Activity against I.C. L1210 cells, Cell Kill: 57.3 x
  crossing of blood brain barrier / CNS penetration (words): effectively cross the blood brain barrier
[6]; 22 mg/kg, qd day 1
  Activity against I.P. L1210 cells resistant to 6MP, 6TG, 6TGR, T/C: 93.8%
[6]
  activity against drug resistant cells (words): shows no activity

## NSc1ncnc2c1ncn2[C@H]1C[C@H](O)[C@@H](CO)O1 [Compound 14, 9-(2-Deoxy-β-D-erythro-pentofuranosyl)-9H-purine-6-sulfenamide]
[1]
  Max. sol. dosage: 800 mg/kg
[2]; ip, L1210-inoculated BDF1 mice
  MTD: 288 mg/kg

## Sc1ncnc2nc[nH]c12 [6-Mercaptopurine]
[7]
  inducement of drug resistant cell lines: inducement of drug resistant cell line occurs
[8]
  Activity rating δT/δC: 99
L1210 cells [5]
  Residual cells (% of control brain): 37%
adenocarcinoma
  activity against adenocarcinoma: highly active against adenocarcinoma

## NS(=O)(=O)c1ncnc2c1ncn2[C@H]1C[C@H](O)[C@@H](CO)O1 [Compound 16, 9-(2-Deoxy-β-D-erythro-pentofuranosYl)-9H-purine-6-sulfonamide]
[1]
  Max. sol. dosage: 800 mg/kg
[2]; ip, L1210-inoculated BDF1 mice
  MTD: 173 mg/kg
